Results published in patent publication US12674178B2, “Methods for the evaluation of neutralizing antibodies for adeno-associated virus” (REGENTS OF THE UNIVERSITY OF MINNESOTA, priority 2020, dated 2026).

Key:
[1] = tested on: AAV8; experiment: AAV8-Luc infection of HEK293 cells, luciferase readout; assay type: cell-based, adeno-associated virus; conditions: at least one model system, cells pretreated
Description: (§1) HEK293 cells were infected with AAV8-Luciferase (Luc) or AAV2-Luc at an MOI of 5000 in the presence of several pharmacologically active drugs (TNFα+LPS, TNFα+IL-6, dorsomorphin (also known as “Compound C” or “CC”), SP600125, or rosiglitazone). The drugs were added 1 hour before injection with AAV-Luc. 24 hours after AAV-Luc was added, luciferase was detected, as further described in Example 2.
Method: Day 0: • 1. Remove culture medium (DMEM supplemented with 10% heat-inactivated FBS and 1% penicillin/streptomycin) from HEK293 cell culture, gently wash cells twice with 100 μL of PBS. Cells should be at low passage and approximately 80% confluent without being overgrown. Harvest cells by trypsinization and perform a cell count. • 2. Resuspend cells in complete DMEM culture medium at 200,000 cells/mL. Seed cells in 96-well plates with black or white walls and clear bottoms: 20,000 cells/well in 100 μL of complete media. • 3. Incubate cells overnight in C02 incubator at 37° C. Day 1: • 1. […] Each dilution was analyzed at least in triplicate. […] Set up spectrophotometer to read chemiluminescence. If the spectrophotometer is BioTek the read conditions are: 500 ms, gain 125-135, height of plate 3.75 mm. Add 50 μL of Bright Glo substrate to each well, incubate plate 3 min in the dark and then read. For maximal light intensity, samples should be measured within 15 minutes of reagent addition. […]

[2] = tested on: AAV2; experiment: AAV2-Luc infection of HEK293 cells, luciferase readout; assay type: cell-based, adeno-associated virus; conditions: AAV2, CC pre-treatment, 48 hours, MOI 2000
Description: as §1
Method: Day 0: • 1. Remove culture medium (DMEM supplemented with 10% heat-inactivated FBS and 1% penicillin/streptomycin) from HEK293 cell culture, gently wash cells twice with 100 μL of PBS. Cells should be at low passage and approximately 80% confluent without being overgrown. Harvest cells by trypsinization and perform a cell count. • 2. […] Each dilution was analyzed at least in triplicate. […] Set up spectrophotometer to read chemiluminescence. If the spectrophotometer is BioTek the read conditions are: 500 ms, gain 125-135, height of plate 3.75 mm. Add 50 μL of Bright Glo substrate to each well, incubate plate 3 min in the dark and then read. For maximal light intensity, samples should be measured within 15 minutes of reagent addition.
(§2) The dramatic improvement of AAV8 transduction in vitro in the presence of CC prompted test to determine if similar effect could be achieved for other AAV serotypes. The transduction efficiency of ten common AAV serotypes at MOI 2000 vg/cell was analyzed. […]

[3] = tested on: AAV10; experiment: AAV10/Luc infection of HEK293 cells, luciferase readout; assay type: cell-based, adeno-associated virus; conditions: AAV10, CC pre-treatment, MOI 2000
Description: Method: Day 0: • 1. Remove culture medium (DMEM supplemented with 10% heat-inactivated FBS and 1% penicillin/streptomycin) from HEK293 cell culture, gently wash cells twice with 100 μL of PBS. Cells should be at low passage and approximately 80% confluent without being overgrown. Harvest cells by trypsinization and perform a cell count. • 2. Resuspend cells in complete DMEM culture medium at 200,000 cells/mL. Seed cells in 96-well plates with black or white walls and clear bottoms: 20,000 cells/well in 100 μL of complete media. • 3. Incubate cells overnight in C02 incubator at 37° C. Day 1: • 1. Confirm microscopically that cells are 50-80% confluent. • 2. […] Each dilution was analyzed at least in triplicate. […] Set up spectrophotometer to read chemiluminescence. If the spectrophotometer is BioTek the read conditions are: 500 ms, gain 125-135, height of plate 3.75 mm. Add 50 μL of Bright Glo substrate to each well, incubate plate 3 min in the dark and then read. For maximal light intensity, samples should be measured within 15 minutes of reagent addition.
as §2

[4] = tested on: HEK293 cells; experiment: Cytotoxicity of the drug to the cells to be infected; assay type: cell-based

## c1cc(-c2cnn3cc(-c4ccc(OCCN5CCCCC5)cc4)cnc23)ccn1 [dorsomorphin]
[1]
  CC pretreatment concentration giving statistically significant increase in activity of AAV/Luc: at least 2.5 μM
[2]
  luciferase activity, times higher than background: more than 1000 times
[3]
  luciferase activity, times higher than background: 8 times
[4]; HEK293 infected with AAV2/AAV8
  cytotoxic effects: without cytotoxic effects
[4]; at least one model system
  CC concentration that became toxic to cells: higher than 20 μM
